Results published in patent publication US10238631B2, “Sesquiterpene derivatives and their use in inflammation or cancer treatment” (Academia Sinica, priority 2014, dated 2019).
Read-outs that look alike come from different tables or passages of the source.

Tests used:
[1] = system: SK-N-MC neuroepithelioma line; test: MTT cell viability assay, SK-N-MC; type: cell-based; settings: Homo sapiens, 24 h
Protocol: (§1) Normal or cancer cells (2×10^3 to 1×10^4 cells/well) were seeded in 96-well plate for overnight and treated with different compounds for 24 h to 72 h. Cells growth were determined by MTT-based colorimetric assays according to. Viability of the test cells treated with vehicle (0.5% DMSO) only was defined as 100% viable. Survival of cells after treatment with DETDs was calculated using the following formula: viable cell number (%)=OD570 (treated cell culture)/OD570 (vehicle control)×100.
(§2) Based on toxicity results of DET and DETDs on different breast cancer and melanoma cell lines, we selected DETD-6, -32, -35 and -39, under the consideration of structure activity relationship for evaluating their suppression effect against other cancer types of cell line with indicated tumor origin in Table 5. […] The cells were treated with compounds for 24 h and then subjected to MTT assays.

[2] = system: A375 (BRAF mutation); test: MTT cell viability assay, A375 melanoma; type: cell-based, human; settings: Homo sapiens, A-375, 24 h, 24 h, MTT; read-out: IC50 on cell viability, A375 (BRAF mutation)
Summary of the method: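 A375 cells were seeded at 2×10^3 to 1×10^4 per well overnight and then exposed to compounds for 24 h to 72 h. Viability was measured by MTT absorbance at OD570 relative to 0.5% DMSO vehicle (100%), and IC50 was derived from it. Combination with PLX4032 was scored by combination index.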

[3] = system: B16-F10 (NRAS mutation); test: MTT cell viability assay, B16-F10 melanoma; type: cell-based; settings: Mus musculus, B16-F10, 24 h
Summary of the method: (§3)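 Overnight-seeded cells (2×10^3–1×10^4/well) → compound 24–72 h → MTT, OD570; % viable = treated/vehicle ×100, vehicle 0.5% DMSO.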

[4] = system: Melanocyte (Normal cells); test: MTT cell viability assay, normal melanocytes; type: cell-based, human; settings: Homo sapiens, Melanocyte, 24 h
Summary of the method: as §3

[5] = system: A498 kidney cancer cell line; test: MTT cell viability assay, A498; type: cell-based; settings: Homo sapiens, 24 h
Protocol: as §1, §2

[6] = system: TS/A (ER+, Her2−) murine mammary cancer cells; test: MTT cell viability assay, TS/A cells; type: cell-based; settings: Mus musculus
Summary of the method: (§4)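 Seed 2×10^3 to 1×10^4 cells/well, overnight. Treat with compounds 24 h to 72 h. Add MTT, read OD570. Express survival relative to 0.5% DMSO vehicle (100%).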

[7] = system: PC3 (Prostate); test: MTT cell viability assay, PC3; type: cell-based; settings: 24 h
Protocol: as §1, §2

[8] = system: HTB-68 (NRAS mutation); test: MTT cell viability assay, HTB-68 melanoma; type: cell-based, human; settings: Homo sapiens, 24 h
Summary of the method: as §3

[9] = system: MCF-7 (ER+, Her2−) human breast cancer cells; test: MTT cell viability assay, MCF-7 cells; type: cell-based
Summary of the method: as §4

[10] = system: U-87MG brain cancer cell line; test: MTT cell viability assay, U-87MG; type: cell-based; settings: Homo sapiens, 24 h
Protocol: as §1, §2

[11] = system: U937 lymphoma line; test: MTT cell viability assay, U937; type: cell-based; settings: Homo sapiens, U-937, 24 h
Protocol: as §1, §2

[12] = system: HCT-116 colon cancer cell line; test: MTT cell viability assay, HCT-116; type: cell-based; settings: Homo sapiens, 24 h
Protocol: as §1, §2

[13] = system: RAW264.7 (normal macrophage); test: MTT cell viability assay, RAW264.7 macrophages; type: cell-based, mouse; settings: Mus musculus, RAW264.7, 24 h
Summary of the method: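 RAW264.7 macrophages (2×10^5 cells/well) pretreated with compounds 1 h, then incubated 24 h with or without 100 ng/μL LPS. Viability by MTT colorimetric assay run in parallel with Griess nitrite measurement.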

[14] = system: M10 normal mammary epithelial cells; test: MTT cell viability assay, M10 normal cells; type: cell-based, human; settings: 24 h; for IC50: Homo sapiens, Epithelial cell
Summary of the method: as §4

[15] = system: MDA-MB-231 (ER−, PR−, Her2−) human breast cancer cells; test: MTT cell viability assay, MDA-MB-231 cells; type: cell-based; settings: Homo sapiens
Summary of the method: as §4

[16] = system: KATO III stomach cancer cell line; test: MTT cell viability assay, KATO III; type: cell-based; settings: Homo sapiens, 24 h
Protocol: as §1, §2

[17] = system: PC6 lung cancer cell line; test: MTT cell viability assay, PC6; type: cell-based; settings: 24 h
Protocol: as §1, §2

[18] = system: NES-SA uterus cancer cell line; test: MTT cell viability assay, NES-SA; type: cell-based; settings: 24 h
Protocol: as §1, §2

[19] = system: LPS-induced nitric oxide (NO) production in RAW 264.7 cells; test: Nitric oxide production in LPS-stimulated macrophages (Griess); type: cell-based, mouse; settings: Mus musculus; LPS-stimulated RAW264.7, nitrite 24 h after LPS
Summary of the method: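 RAW 264.7 macrophages (2×10^5 cells/well) were pretreated with compound for 1 h and then stimulated with 100 ng/μL LPS for 24 h. NO was measured as nitrite in the medium by the Griess reaction. Viability was checked in parallel by MTT.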

[20] = system: MeWo (No NRAS or BRAF mutation); test: MTT cell viability assay, MeWo melanoma; type: cell-based, human; settings: Homo sapiens, MeWo, 24 h
Summary of the method: as §3

[21] = system: melanoma cell lines B16-F10, MeWo, A375, A2058, HTB-68; test: MTT cell viability assay, all melanoma cell lines; type: cell-based; settings: 24 h, read-out: IC50 values over all types of melanoma cell lines
Protocol: as §1
Several genes are involved in melanoma development and pathology; specifically, mutation in V-raf murine sarcoma viral oncogene homolog B1 (B-RAF) occurs approximately 50-60% and in neuroblastoma RAS viral oncogene homolog (N-RAS) occurs about 30% of malignant melanomas. A spectrum of wild-type or mutated melanoma cell lines including B16-F10, MeWo, A375, A2058, HTB-68, and melanocyte were used to study anti-melanoma cell proliferation activity of parental phytocompound DET and newly synthesized DETDs.

[22] = system: A2058 (BRAF mutation); test: MTT cell viability assay, A2058 melanoma; type: cell-based, human; settings: Homo sapiens, A2058, 24 h
Summary of the method: as §3

[23] = 24 h, read-out: IC50 on cell viability, B16-F10 (NRAS mutation)
[24] = Table 5, 24 h, read-out: IC50 viability B16-F10 (mouse) (Skin)
[25] = 24 h, read-out: IC50 on cell viability, TS/A (ER+, Her2−)
[26] = Table 5, 24 h, read-out: IC50 viability TS/A (mouse) (Breast)
[27] = MCF7, 24 h, read-out: IC50 on cell viability, MCF-7 (ER+, Her2−)
[28] = MCF7, Table 5, 24 h, read-out: IC50 viability MCF-7 (Breast)
[29] = MDA-MB-231, 24 h, read-out: IC50 on cell viability, MDA-MB-231 (ER−, PR−, Her2−)
[30] = MDA-MB-231, Table 5, 24 h, read-out: IC50 viability MDA-MB-231 (Breast)

SMILES	IC50 [1] [µM]	IC50 [2] [µM]	IC50 [3, 23] [µM]	IC50 [3, 24] [µM]	IC50 [4] [µM]	IC50 [5] [µM]	IC50 [6, 25] [µM]	IC50 [6, 26] [µM]	IC50 [7] [µM]	IC50 [8] [µM]	IC50 [9, 27] [µM]	IC50 [9, 28] [µM]	IC50 [10] [µM]	IC50 [11] [µM]	IC50 [13] [µM]	IC50 [14] [µM]	IC50 [15, 29] [µM]	IC50 [19] [µM]	IC50 [20] [µM]	IC50 [22] [µM]	further results
C=C1C(=O)O[C@H]2CC3=C[C@@H](C/C(C)=C/[C@@H](OC(=O)/C=C/c4ccccc4)[C@H]12)OC3=O [DETD-6]	0.32	3.3	3.9	3.9	> 10	1.11	1.6	1.8	4.5	5.7	1.6	4.8	0.35	0.18	> 10	4.9	4.2	2.5	9.9	3.9	IC50 [12]: 0.11 µM; IC50 on cell viability, M10 (normal) [14]: some toxicity; IC50 [15, 30]: 4 µM; IC50 [16]: 0.42 µM; IC50 [17]: 0.17 µM; IC50 [18]: 0.42 µM; IC50 [21]: 1.6 to 9.9 µM
C=C1C(=O)O[C@H]2CC3=C[C@@H](C/C(C)=C/[C@@H](OC(=O)c4ccc(OC)cc4)[C@H]12)OC3=O [DETD-32]	0.51	> 10	4.2	4.2	> 10	1.48	1.9	1.9	6.2	> 10	4.3	4.3	0.42	0.39	> 10	> 7.5	3.9	2.6	> 10	> 10	IC50 [12]: 0.36 µM; IC50 [15, 30]: 3.9 µM; IC50 [16]: 0.82 µM; IC50 [17]: 0.47 µM; IC50 [18]: 0.5 µM
C=C1C(=O)OC2CC3=C[C@@H](C/C(C)=C/[C@@H](OC(=O)/C=C/c4ccc(OCC)cc4)[C@H]12)OC3=O (some centres unmarked) [DETD-60]	–	2	4.9	–	> 10	–	2.1	–	–	4.9	3.3	–	–	–	> 10	4	2.7	3	4.8	4.1	IC50 [21]: 1.6 to 9.9 µM
